Experimental data published in patent US20220016241A1, “COMPOSITIONS AND METHODS FOR REDUCING ANTIGEN-SPECIFIC IMMUNOGENICITY” (The Research Foundation for The State University of New York, priority 2013, published 2022).

How the values were obtained:
[1] = tested on: anti-Humira antibody titers; experiment: Effect of OPLS on immunogenicity of adalimumab; assay type: in vivo, mice; details: 5 mg OPLS with Humira s.c., 4 weekly injections, 2 weeks washout
Procedure: Methods: n=8 animals/group were immunized with 4 weekly s.c. injections of 10 μg of adalimumab in 100 μl of either sterile TRIS for the free group or in 5 mg OPLS in sterile TRIS for the OPLS-Adalimumab group. After a 2 week rest period, a blood sample from the saphenous vein was collected for titer analysis. Titer values were obtained by classical sandwitch ELISA. Briefly, Nunc-Maxisorb 96-well plates were coated overnight at 4° C. with 50 μl/well of 2.5 μg/ml Humira. Plates were then washed and blocked with 1% bovine serum albumin (blocking buffer). 50 μl/well of various dilutions of the sample were added to the plate and incubated at room temperature for 2 h. Plasma samples from animals exposes to a sham treatment (buffer only) served as controls. The plates were then washed and incubated with 50 μl of goat anti-mouse anti-body-HRP conjugate at a 1:50000 dilution in blocking buffer at room temperature for 1 h. Color was developed for 20 min with 100 μl of TMB solution. 100 μl of 2 N H2SO4 was used to stop the reaction. Optical density at […] was measured using a plate reader. Non-responders were given the value of the plate specific factor for uniformity.

anti-GAA total titers = experiment: OPLS-GAA sequential administration study; assay type: in vivo, Mice; details: for Total titers (ELISA), week 11 after re-challenge: rechallenge 4 weekly 1 μg rhGAA; for Total titers (ELISA), week 6: 4 weekly sc
Procedure: This examples describes OPLS-GAA sequential administration study. To determine if OPLS can exert its immunomodulatory effects on the immune response to GAA when the two are administered in separate spaced injections, at the same injection site the following experiments were carried out. Mice (n=6 animals/group) were immunized with 4 weekly sc injections as follows. One group of animals received one single combined injection of 5 mg OPLS and 1 μg rhGAA(100 μl volume). Recombinant human GAA was produced by Creative Biomart. The second group received one injection of 5 mg OPLS (100 μl volume) then after a 5 minute wait they received a second injection of 1 μg rhGAA in sterile TRIS (100 μl volume) in the same injection site. The final control group received one injection of sterile TRIS (100 μl volume) then after a 5 minute wait they received a second injection of 1 μg rhGAA in sterile TRIS (100 μl volume) in the same injection site. After a two week rest period a saphenous blood sample was collected. All of the mice were then rechallenged with 4 weekly injections of 1 μg of rhGAA in 100 μl sterile TRIS (one single injection). Analysis was done by ELISA for total titers. The mean free GAA after 6 weeks was 3135±910, When co-administered, the GAA was 787±155, and when administered separately (sequentially), the GAA was 926±202 (FIG. 26). After re-challenge, terminal sampling was done at week 11. The mean free GAA after 11 weeks was 8775±2363, When co-administered, the GAA was 895±335, and when administered separately (sequentially), the GAA was 1884±761. […] Either administration method was able to induce a hypo-responsiveness towards GAA.

anti-FVIII titers = experiment: Effect of OPLS on in-vivo immunogenicity of FVIII after sc administration; design: species or system HA mice; details: days 1, 8, 10, 12
Procedure: Effect of OPLS on the immunogenicity of FVIII after SC administration in-vivo: 21 HA mice between 6 and 8 weeks of age were divided into 3 groups: group one received 1 ug FVIII SC in the abdominal region. Group two received 1 μg FVIII plus 0.4 mg OPLS SC in the abdominal region and group 3 received 1 μg FVIII plus 5 mg OPLS sc in the abdominal region. Incubation of FVIII with OPLS at 37° C. for 30 minutes ensures complexation, but for this example, OPLS and FVIII were combined at the desired concentrations at room temperature (22° C.) and immediately administered (within 1 minute). This treatment was given one day 1, 8, 10 and 12. Three days after the last injection the animals were sacrificed. Blood was centrifuged at 7500 rpm for 5 min at 4 degrees Celsius. Plasma was then removed and stored at −80 degrees Celsius until analysis.
Total titers were determined by classical standard ELISA. Anti-FVIII antibody (ESH8) was used as a control. Statistics was done on the arithmetic mean of the log transformed data, graphs are reported as geometric means. Non-responders were given the value of the plate specific factor for uniformity. […]
Statistics: Non-parametric one-way ANOVA with Tukey's post hoc analysis was used for the analysis of titer values where appropriate. Student t-test was used for comparing mean intensity of fluorescence (MIF) for flow cytomerty data. […]

Humira = experiment: Binding of OPLS to Humira
Procedure: The binding of OPLS to several therapeutic proteins was evaluated using fluorescence spectroscopy (FIG. 2). The fluorescence emission reduced as the concentration of OPLS was increased. The fluorescence intensity changes were highest for FVIII compared to GAA and OVA. […] The high affinity binding for FVIII is consistent with the existence of a putative lipid binding domain.
As shown in FIG. 6(d), anti-Humira antibody titers were lower in mice that were co-administered OPLS (5 mg dose) and Humira® ([…]) via the s.c. route than in those administered Humira® alone ([…]) (also via the s.c. route) after 4 weekly injection followed by a 2 weeks washout period. Titer values were obtained by classical sandwitch ELISA were the plates was coated with Humira before incubation with dilutions with plasma samples, anti-Humira antibodies were detected with a rat anti-mouse-HRP conjugated antibodies. […] It is highly doubtful that the weak binding seen here is “shielding” an immunologic epitope.

N[C@@H](COP(=O)(O)O)C(=O)O [OPLS, O-Phospho-L-Serine]
Anti-Humira antibody titers vs Humira alone [1]: lower | Total titers (ELISA), week 11 after re-challenge (anti-GAA total titers; co-administered with 5 mg OPLS): 895±335 | Total titers (ELISA), week 6 (anti-GAA total titers; co-administered: single combined injection 5 mg OPLS and 1 μg rhGAA): 787±155 | Total titers (ELISA), week 11 after re-challenge (anti-GAA total titers; sequential, 5 mg OPLS 5 min before GAA): 1884±761 | Total titers (ELISA), week 6 (anti-GAA total titers; sequential: 5 mg OPLS then 1 μg rhGAA 5 min later, same site): 926±202 | Total anti-FVIII titer (anti-FVIII titers; 1 μg FVIII with high dose OPLS (5 mg/injection) sc, geometric mean±SD): 5.34±5.8 arbitrary units | Total anti-FVIII titer (anti-FVIII titers; 1 μg FVIII with low dose OPLS (0.4 mg/injection) sc, not statistically significant vs FVIII alone): 137±1.4 arbitrary titer units | Binding between OPLS and Humira (Humira): weak binding
